From patent publication US8236841B2, “Fused heterocycle derivative” (Kyowa Hakko Kirin Co., Ltd., priority 2006, dated 2012)

What was measured:
[1] = target: T1, human CB2 receptor (Homo sapiens, UniProt P34972); assay: GTPγS binding assay via human CB2 receptor; assay type: biochemical; conditions: membrane of human CB2 receptor stably expressing CHO-K1 cells; for EC50: read-out: EC50 value (agonist activity, [35S]GTPγS binding); for Emax: read-out: Emax value (maximum effect relative to CP55940 set to 100%)
T1 construct: expressed in transfected cells
T1 sequence (P34972 whole entry): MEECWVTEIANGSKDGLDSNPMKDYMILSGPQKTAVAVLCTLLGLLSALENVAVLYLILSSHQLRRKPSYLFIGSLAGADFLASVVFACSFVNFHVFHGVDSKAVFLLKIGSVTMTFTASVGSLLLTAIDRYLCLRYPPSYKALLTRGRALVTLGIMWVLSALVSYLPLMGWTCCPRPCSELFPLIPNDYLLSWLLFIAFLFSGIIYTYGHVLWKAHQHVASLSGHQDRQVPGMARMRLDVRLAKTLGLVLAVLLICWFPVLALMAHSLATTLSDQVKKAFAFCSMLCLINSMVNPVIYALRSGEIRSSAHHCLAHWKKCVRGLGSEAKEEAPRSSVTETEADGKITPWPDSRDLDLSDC
Method: GTPγS binding assay via human CB2 receptor
The assay was performed according to a method of Hillard et al. (The Journal of Pharmacology and Experimental Therapeutics, vol. 289, p. 1427 (1999)). For use as a membrane sample, a membrane fraction was prepared from human CB2 receptor stably expressing CHO-K1 cells (Nature, vol. 365, pp. 61-65 (1993)). The membrane sample (final concentration of 40 μg·protein/mL) together with each test compound and [^35S]GTPγS (manufactured by PerkinElmer, final concentration of 0.05 nmol/L), was incubated at 30° C. for 1 hour in the assay buffer solution (50 mmol/L Tris-HCl buffer solution (pH 7.4), 100 mmol/L NaCl, 1 mmol/L EDTA, 3 mmol/L MgCl2 and 0.1% bovine serum albumin) containing 20 μmol/L guanosine 5′-diphosphate (GDP). Then, the mixture was filtered through a glass filter GF/B (manufactured by Whatman). After the glass filter was washed with the assay buffer solution, the radioactivity on the glass filter was measured using a liquid scintillation counter (TRI-CARB 2700TR, manufactured by Packard). The nonspecific binding amount was defined as a binding amount in the presence of 10 μmol/L GTPγS. The specific binding amount was presented as the difference between the total binding amount and the nonspecific binding amount. The increase rate of the specific binding amount in the presence of the test compound relative to the specific binding amount in the absence of the test compound was defined as agonist activity of the test compound. The concentration which gives 50% of the maximum effect of the test compound (EC50 value) was calculated by nonlinear regression analysis of the concentration-response curve. The percentage of the maximum effect of the test compound (Emax value) was calculated based on the maximum effect of CP55940 (manufactured by Tocris) measured simultaneously set to 100%.

[2] = target: T2, CB2 receptor (Rattus norvegicus, UniProt Q9QZN9); assay: [3H]CP55940 binding assay, CB2 receptor (rat spleen membrane); conditions: [3H]CP55940 0.5 nmol/L, 25° C. 1 hour
T2 construct: from tissue; host or cells: rat spleen membranes
T2 sequence (Q9QZN9 1-360): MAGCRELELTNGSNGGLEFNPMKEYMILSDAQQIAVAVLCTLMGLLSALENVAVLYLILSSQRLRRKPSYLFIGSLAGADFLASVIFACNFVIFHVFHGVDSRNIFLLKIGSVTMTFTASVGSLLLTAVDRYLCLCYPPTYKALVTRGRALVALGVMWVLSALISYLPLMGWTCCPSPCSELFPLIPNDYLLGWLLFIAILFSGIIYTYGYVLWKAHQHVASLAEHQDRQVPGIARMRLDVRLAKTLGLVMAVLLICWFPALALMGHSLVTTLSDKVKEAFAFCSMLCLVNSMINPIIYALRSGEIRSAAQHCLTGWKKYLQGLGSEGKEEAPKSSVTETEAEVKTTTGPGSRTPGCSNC
Method: Cannabinoid CB1 and CB2 receptor-binding activities
The assay was performed according to a method of Hillard et al. (The Journal of Pharmacology and Experimental Therapeutics, vol. 289, p. 1427 (1999)). A rat forebrain membrane sample was prepared for use in the binding assay for CB1 receptor, and a rat spleen membrane sample was prepared for use in the binding assay for CB2 receptor. Each membrane sample (forebrain: final concentration of 0.5 mg·protein/mL, spleen: final concentration of 2 mg·protein/mL) together with each test compound and [^3H]CP55940 ((−)-cis-3-[2-hydroxy-[3,5-^3H]-4-(1,1-dimethylheptyl)-phenyl]-trans-4-(3-hydroxypropyl)cyclohexanol, manufactured by PerkinElmer, final concentration of 0.5 nmol/L), was incubated at 25° C. for 1 hour in the assay buffer solution (50 mmol/L Tris-HCl buffer solution (pH 7.4), 1 mmol/L EDTA and 3 mmol/L MgCl2) containing 0.1% bovine serum albumin. Then, the mixture was filtered through a glass filter GF/C (manufactured by Whatman) pretreated with 1% polyethyleneimine. After the glass filter was washed with the assay buffer solution containing 0.2% bovine serum albumin, the radioactivity on the glass filter was measured using a liquid scintillation counter (TRI-CARB 2700TR, manufactured by Packard). The nonspecific binding amount was defined as a binding amount in the presence of 10 μmol/L […] ((R)-(+)-[2,3-dihydro-5-methyl-3-(4-morpholinylmethyl)-pyrrolo[1,2,3-de]-1,4-benzoxazin-6-yl]-1-naphthalenylmethanone, manufactured by Tocris). The specific binding amount was presented as the difference between the total binding amount and the nonspecific binding amount. The 50% inhibitory concentration (IC50 value) of the test compound in the specific binding was determined. The Ki value of the test compound was calculated from this IC50 value and the Kd value for [^3H]CP55940 binding.

[3] = test system: rats with chronic constriction nerve injury; assay: Analgesic effect in rats with chronic constriction nerve injury (von Frey filament); assay type: in vivo, rat; conditions: orally administered, dose of 50 mg/kg or less, one hour after administration, von Frey filaments
Text: Analgesic Effect of Compounds in Rats with Chronic Constriction Nerve Injury
Rats with chronic constriction nerve injury were produced by partially modifying the method of Mosconi and Kruger et al. (Pain, vol. 64, pp. 37-57 (1996)).
Male Crl:CD(SD) rats were used for the experiments. Under pentobarbital anesthesia, the sciatic nerve of the left hind limb of the rat was exfoliated, and the exfoliated region was wrapped with a polyethylene tube (trade name: Intramedic, size: PE-60, manufactured by Becton Dickinson and Company) of 2 mm in length. On days 14 to 21 after the surgery, the rats were placed in an acrylic connected cage with a wire mesh floor (900 mm (length)×210 mm (depth)×140 mm (height)) consisting of 4 cages connected in a row and allowed to acclimate to the environment for at least 20 minutes, and then, the pain was evaluated.
The von Frey filament (trade name: touch test sensory evaluator, Model number: model 58011, manufactured by Muromachi Kikai) was used to evaluate pain, and the results were calculated as a pain threshold. That is, by using a von Frey filament of different stimulus intensity, stimulation was given to the plantar surface of the injured side of rats with chronic constriction nerve injury, and the stimulus intensity to cause paw withdrawal response was obtained. Then, the 50% pain threshold (Paw withdrawal threshold) (g) was calculated by the up down method of Dixon [Annual Review of Pharmacology and Toxicology, vol. 20, pp. 441-462 (1980)].
In the evaluation of the test compound, rats with 50% pain threshold of less than 4 g were used, and the test compound was dissolved in a 0.5% aqueous methyl cellulose solution and orally administered at a dose of 5 mL/kg. One hour after the administration, the pain threshold was measured using von Frey filaments.

Row | Structure (SMILES) | EC50 [1] | Emax [1] | Ki [2] | 50% pain threshold (Paw withdrawal threshold) [3]
1 | CCN(CC)C(=O)c1ccn2c(CC3CCCCC3)c(C(C)(C)C)nc2c1 [Compound 1, 2-tert-Butyl-3-cyclohexylmethyl-N,N-diethylimidazo[1,2-a]-pyridine-7-carboxamide] | < 1000 nM | > 30% | < 1000 nM | –
2 | CCN(CC)C(=O)c1ccn2c(CC3CCOCC3)c(C(C)(C)C)nc2c1 [Compound 2, 2-tert-Butyl-N,N-diethyl-3-(tetrahydropyran-4-ylmethyl)-imidazo[1,2-a]pyridine-7-carboxamide] | < 1000 nM | > 30% | < 1000 nM | significantly increased the pain threshold
3 | CCN(CC)C(=S)c1ccn2c(CC3CCOCC3)c(C(C)(C)C)nc2c1 [Compound 8, 2-tert-Butyl-N,N-diethyl-3-(tetrahydropyran-4-ylmethyl)-imidazo[1,2-a]pyridine-7-carbothioamide] | < 1000 nM | > 30% | < 1000 nM | –
4 | CCN(CC)C(=O)c1cc2nc(C(C)(C)C)c(CC3CCCCC3)n2cn1 [Compound 14, 2-tert-Butyl-3-cyclohexylmethyl-N,N-diethyl-imidazo[1,2-c]-pyrimidine-7-carboxamide] | < 1000 nM | > 30% | < 1000 nM | –
5 | CCN(CC)C(=O)c1cc2nc(C(C)(C)C)c(CC3CCOCC3)n2cn1 [Compound 15, 2-tert-Butyl-N,N-diethyl-3-(tetrahydropyran-4-ylmethyl)-imidazo[1,2-c]pyrimidine-7-carboxamide] | < 1000 nM | > 30% | < 1000 nM | significantly increased the pain threshold
6 | CCN(CC)C(=S)c1cc2nc(C(C)(C)C)c(CC3CCOCC3)n2cn1 [Compound 16, 2-tert-Butyl-N,N-diethyl-3-(tetrahydropyran-4-ylmethyl)-imidazo[1,2-c]pyrimidine-7-carbothioamide] | < 1000 nM | > 30% | < 1000 nM | –
7 | CC(C)N(C)C(=O)c1ccn2c(CC3CCOCC3)c(C(C)(C)C)nc2c1 [Compound 17, 2-tert-Butyl-N-isopropyl-N-methyl-3-(tetrahydropyran-4-ylmethyl)-imidazo[1,2-a]pyridine-7-carboxamide] | < 1000 nM | > 30% | < 1000 nM | significantly increased the pain threshold
8 | CC(C)CN(C)C(=O)c1ccn2c(CC3CCOCC3)c(C(C)(C)C)nc2c1 [Compound 18, 2-tert-Butyl-N-isobutyl-N-methyl-3-(tetrahydropyran-4-ylmethyl)imidazo[1,2-a]pyridine-7-carboxamide] | < 1000 nM | > 30% | < 1000 nM | significantly increased the pain threshold
9 | CCN(CC)C(=O)c1ccn2c(CC3CCCCO3)c(C(C)(C)C)nc2c1 (centres unmarked) [Compound 27, 2-tert-Butyl-N,N-diethyl-3-(tetrahydropyran-2-ylmethyl)-imidazo[1,2-a]pyridine-7-carboxamide] | – | – | < 1000 nM | –
